# Test results reported in publication PMC3025750 (Journal of medicinal chemistry, 2010).
# Entries after “also recorded” stand apart in the source; their conditions may differ.
# Experiments:
# [1] = tested on: TCR-induced activation of the proximal IL-2 promoter (NFAT/AP-1) in Jurkat TAg T cells; assay: NFAT/AP-1 dual luciferase reporter assay; type: cell-based; conditions: for NFAT/AP-1 signaling in unstimulated sample / NFAT/AP-1 activation in TCR-stimulated sample compared to DMSO control: 5 μM compound; for NFAT/AP-1 signaling in unstimulated sample: no TCR stimulation; for NFAT/AP-1 signaling in unstimulated sample / NFAT/AP-1 activation in TCR-stimulated sample compared to DMSO control / dose-dependence of TCR-induced NFAT/AP-1 activation: Jurkat TAg T cells; for NFAT/AP-1 activation in TCR-stimulated sample compared to DMSO control: 45 min, then OKT3 6 hours; for dose-dependence of TCR-induced NFAT/AP-1 activation: dose-response 0.1 to 30 μM
# recombinant Lyp = recombinant Lyp (Homo sapiens, UniProt Q9Y2R2); conditions: ratio of IC50 values
# [2] = tested on: Lck-pY394 and pζ-chain phosphorylation in Jurkat TAg T cells; assay: Immunoblotting of Lyp's substrates Lck-pY394 and pζ-chain after TCR stimulation; type: cell-based; conditions: 45 min at 37°C, then TCR stimulation, immunoblot
# Chain of recombinant Lyp (Q9Y2R2 2-309): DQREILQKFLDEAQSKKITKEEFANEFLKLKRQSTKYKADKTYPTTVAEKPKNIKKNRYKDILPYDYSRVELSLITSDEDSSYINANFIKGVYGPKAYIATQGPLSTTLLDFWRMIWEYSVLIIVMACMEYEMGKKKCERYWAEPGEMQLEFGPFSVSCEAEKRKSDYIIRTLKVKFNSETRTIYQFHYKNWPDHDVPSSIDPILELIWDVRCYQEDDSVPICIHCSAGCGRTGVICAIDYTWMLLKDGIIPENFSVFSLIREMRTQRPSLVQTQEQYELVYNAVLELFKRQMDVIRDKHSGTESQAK
Compound,NFAT/AP-1 signaling in unstimulated sample [1],NFAT/AP-1 activation in TCR-stimulated sample compared to DMSO control [1],improvement of Lyp inhibitory activity over the original compound 478 (recombinant Lyp) [fold],concentration at which pTyr levels of Lck-pY394 and pζ-chain were augmented [2] [μM],compound concentration at which NFAT/AP-1 activation was augmented [1],dose-dependence of TCR-induced NFAT/AP-1 activation [1]
O=C(CCCn1cc(-c2c(-c3ccccc3)oc3cc(O)c(C(=O)O)cc23)nn1)Nc1ccc(Br)c2ccccc12 [Compound 482],substantially augmented signaling; also recorded: enhanced T cell signaling in a non TCR-mediated manner,–,–,–,–,–
Cc1ccc(-c2oc3cc(O)c(C(=O)O)cc3c2-c2cn(CCCC(=O)Nc3ccc(Br)c4ccccc34)nn2)cc1 [Compound 526],substantially augmented signaling; also recorded: enhanced T cell signaling in a non TCR-mediated manner,modest,17,–,–,–
"COc1ccc(-c2oc3cc(O)c(C(=O)O)cc3c2-c2cn(CCCC(=O)Nc3cccc4ccccc34)nn2)cc1 [Compound 584, 6-hydroxy-2-(4-methoxyphenyl)-3-(1-(4-(naphthalen-1-ylamino)-4-oxobutyl)-1H-1,2,3-triazol-4-yl)benzofuran-5-carboxylic acid]",–,considerable higher NFAT/AP-1 activation,–,3,submicromolar,dose-dependent effect
Cc1ccc(-c2oc3cc(O)c(C(=O)O)cc3c2-c2cn(CCC(=O)Nc3cccc4ccccc34)nn2)cc1 [Compound 530],–,considerable higher NFAT/AP-1 activation,–,–,–,–
O=C(CCn1cc(-c2c(-c3ccccc3)oc3cc(O)c(C(=O)O)cc23)nn1)Nc1cccc2ccccc12 [Compound 495],–,considerable higher NFAT/AP-1 activation,–,–,–,–
"COc1ccc2nc(NC(=O)CCCn3cc(-c4c(-c5cccc(C)c5)oc5cc(O)c(C(=O)O)cc45)nn3)sc2c1 [Compound 630, 6-hydroxy-3-(1-(4-(6-methoxybenzo[d]thiazol-2-ylamino)-4-oxobutyl)-1H-1,2,3-triazol-4-yl)-2-m-tolylbenzofuran-5-carboxylic acid]",–,considerable higher NFAT/AP-1 activation,–,30,≥ 3 µM,dose-dependent effect
"Cc1ccc(-c2oc3cc(O)c(C(=O)O)cc3c2-c2cn(CCCC(=O)Nc3ccc(Cl)c4ccccc34)nn2)cc1 [Compound 525, 3-(1-(4-(4-chloronaphthalen-1-ylamino)-4-oxobutyl)-1H-1,2,3-triazol-4-yl)-6-hydroxy-2-p-tolylbenzofuran-5-carboxylic acid]",–,considerable higher NFAT/AP-1 activation,–,30,submicromolar,dose-dependent effect
O=C(CCCCn1cc(-c2c(-c3ccccc3)oc3cc(O)c(C(=O)O)cc23)nn1)Nc1cccc2ccccc12 [Compound 496],–,considerable higher NFAT/AP-1 activation,–,–,–,–
Cc1ccc(-c2oc3cc(O)c(C(=O)O)cc3c2-c2cn(CCCC(=O)Nc3cccc4cccnc34)nn2)cc1 [Compound 523],–,considerable higher NFAT/AP-1 activation,–,–,–,–
"Cc1ccc(-c2oc3cc(O)c(C(=O)O)cc3c2-c2cn(CCCC(=O)Nc3cccc4ccccc34)nn2)cc1 [Compound 522, 6-hydroxy-3-(1-(4-(naphthalen-1-ylamino)-4-oxobutyl)-1H-1,2,3-triazol-4-yl)-2-p-tolylbenzofuran-5-carboxylic acid]",–,considerable higher NFAT/AP-1 activation,–,10,submicromolar,dose-dependent effect
"COC(=O)c1cc2c(-c3cn(CCCC(=O)Nc4ccc(Cl)c5ccccc45)nn3)c(-c3ccccc3)oc2cc1O [Compound 486, Methyl 3-(1-(4-(4-chloronaphthalen-1-ylamino)-4-oxobutyl)-1H-1,2,3-triazol-4-yl)-6-hydroxy-2-phenylbenzofuran-5-carboxylate]",–,considerable higher NFAT/AP-1 activation,–,5,submicromolar,dose-dependent effect
"O=C(CCCn1cc(-c2c(-c3ccccc3)oc3cc(O)c(C(=O)O)cc23)nn1)Nc1cccc2ccccc12 [Compound 478, reference compound]",–,did not show an effect,–,–,–,–
